Data published in ChEMBL document CHEMBL3632591, “Discovery and structural diversity of the hepatitis C virus NS3/4A serine protease inhibitor series leading to clinical candidate IDX320” (Bioorg Med Chem Lett, 2015).

Experiments:
[1] = Inhibition of HCV genotype 3a NS3/4A protease; design: species or system Hepatitis C virus subtype 3a
[2] = tested on: Rhesus monkey; experiment: Toxicity in monkey assessed as effect on respiratory system at 250 mg/kg, po administered as single dose; assay type: organism-based, Macaca mulatta; details: in vivo
[3] = Half life in Sprague-Dawley rat at 10 mg/kg, po administered as single dose; assay type: ADME, organism-based; details: in vivo
[4] = Oral bioavailability in Sprague-Dawley rat at 10 mg/kg administered as single dose; assay type: ADME, organism-based; details: in vivo
[5] = Inhibition of cellular protease (unknown origin); details: Homo sapiens
[6] = Oral bioavailability in Cynomolgus monkey at 2 mg/kg administered as single dose; assay type: ADME, organism-based, Macaca fascicularis; details: in vivo
[7] = Cmax in CD-1 mouse at 2 mg/kg, po administered as single dose; assay type: ADME, organism-based; design: dose 2 mg/kg, route oral; details: in vivo
[8] = Cytotoxicity against human hepatocytes; assay type: cell-based, Hepatocyte
[9] = Half life in Cynomolgus monkey at 2 mg/kg, iv administered as single dose; assay type: ADME, organism-based, Macaca fascicularis; details: in vivo
[10] = tested on: Mus musculus; experiment: Toxicity in mouse assessed as effect on central nervous system at 250 mg/kg, po administered as single dose; assay type: organism-based; details: in vivo
[11] = Half life in CD-1 mouse at 2 mg/kg, iv administered as single dose measured after 24 hrs; assay type: ADME, organism-based; details: in vivo
[12] = Cmax in Sprague-Dawley rat plasma at 2 mg/kg, iv administered as single dose measured after 8 hrs; assay type: ADME, organism-based; design: dose 2 mg/kg, route intravenous
[13] = Clearance in CD-1 mouse at 2 mg/kg, iv administered as single dose measured after 24 hrs; assay type: ADME, organism-based; details: in vivo
[14] = Tmax in CD-1 mouse at 2 mg/kg, po administered as single dose; assay type: ADME, organism-based; details: in vivo
[15] = AUC (infinity) in Cynomolgus monkey at 2 mg/kg, po administered as single dose; assay type: ADME, organism-based, Macaca fascicularis; design: dose 2 mg/kg, route oral, time infinity; details: in vivo
[16] = tested on: Mus musculus; experiment: Toxicity in mouse assessed as effect on renal function at 250 mg/kg, po administered as single dose; assay type: organism-based; details: in vivo
[17] = target: Voltage-gated inwardly rectifying potassium channel KCNH2 (Homo sapiens, UniProt Q12809); experiment: Inhibition of human ERG expressed in HEK293 cells; assay type: cell-based
[18] = Inhibition of recombinant full length HCV genotype 1b NS3/4A protease by FRET assay; design: species or system Hepatitis C virus subtype 1b
[19] = Inhibition of HCV genotype 4a NS3/4A protease; design: species or system Hepatitis C virus subtype 4a
[20] = target: T1, Cytochrome P450 2B6 (Homo sapiens, UniProt P20813); experiment: Inhibition of human CYP2B6; assay type: ADME
T1 sequence (P20813 whole entry): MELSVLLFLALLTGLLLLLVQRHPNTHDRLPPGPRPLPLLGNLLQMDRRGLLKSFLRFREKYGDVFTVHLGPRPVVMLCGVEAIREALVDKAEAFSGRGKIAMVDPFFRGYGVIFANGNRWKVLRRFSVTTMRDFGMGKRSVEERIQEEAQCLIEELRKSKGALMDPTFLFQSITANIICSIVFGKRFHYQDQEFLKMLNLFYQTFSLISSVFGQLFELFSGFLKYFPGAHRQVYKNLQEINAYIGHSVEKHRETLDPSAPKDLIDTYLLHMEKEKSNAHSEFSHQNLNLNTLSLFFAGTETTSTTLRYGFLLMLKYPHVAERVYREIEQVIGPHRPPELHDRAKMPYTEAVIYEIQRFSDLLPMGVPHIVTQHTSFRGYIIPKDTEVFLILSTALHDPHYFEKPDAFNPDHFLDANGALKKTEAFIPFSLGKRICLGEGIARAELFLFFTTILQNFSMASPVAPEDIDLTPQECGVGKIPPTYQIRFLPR

[21] = Half life in Cynomolgus monkey at 2 mg/kg, po administered as single dose; assay type: ADME, organism-based, Macaca fascicularis; details: in vivo
[22] = Inhibition of HCV genotype 2a NS3/4A protease; design: species or system Hepatitis C virus subtype 2a

Voltage-gated inwardly rectifying potassium channel KCNH2, sequence (Q12809 whole entry): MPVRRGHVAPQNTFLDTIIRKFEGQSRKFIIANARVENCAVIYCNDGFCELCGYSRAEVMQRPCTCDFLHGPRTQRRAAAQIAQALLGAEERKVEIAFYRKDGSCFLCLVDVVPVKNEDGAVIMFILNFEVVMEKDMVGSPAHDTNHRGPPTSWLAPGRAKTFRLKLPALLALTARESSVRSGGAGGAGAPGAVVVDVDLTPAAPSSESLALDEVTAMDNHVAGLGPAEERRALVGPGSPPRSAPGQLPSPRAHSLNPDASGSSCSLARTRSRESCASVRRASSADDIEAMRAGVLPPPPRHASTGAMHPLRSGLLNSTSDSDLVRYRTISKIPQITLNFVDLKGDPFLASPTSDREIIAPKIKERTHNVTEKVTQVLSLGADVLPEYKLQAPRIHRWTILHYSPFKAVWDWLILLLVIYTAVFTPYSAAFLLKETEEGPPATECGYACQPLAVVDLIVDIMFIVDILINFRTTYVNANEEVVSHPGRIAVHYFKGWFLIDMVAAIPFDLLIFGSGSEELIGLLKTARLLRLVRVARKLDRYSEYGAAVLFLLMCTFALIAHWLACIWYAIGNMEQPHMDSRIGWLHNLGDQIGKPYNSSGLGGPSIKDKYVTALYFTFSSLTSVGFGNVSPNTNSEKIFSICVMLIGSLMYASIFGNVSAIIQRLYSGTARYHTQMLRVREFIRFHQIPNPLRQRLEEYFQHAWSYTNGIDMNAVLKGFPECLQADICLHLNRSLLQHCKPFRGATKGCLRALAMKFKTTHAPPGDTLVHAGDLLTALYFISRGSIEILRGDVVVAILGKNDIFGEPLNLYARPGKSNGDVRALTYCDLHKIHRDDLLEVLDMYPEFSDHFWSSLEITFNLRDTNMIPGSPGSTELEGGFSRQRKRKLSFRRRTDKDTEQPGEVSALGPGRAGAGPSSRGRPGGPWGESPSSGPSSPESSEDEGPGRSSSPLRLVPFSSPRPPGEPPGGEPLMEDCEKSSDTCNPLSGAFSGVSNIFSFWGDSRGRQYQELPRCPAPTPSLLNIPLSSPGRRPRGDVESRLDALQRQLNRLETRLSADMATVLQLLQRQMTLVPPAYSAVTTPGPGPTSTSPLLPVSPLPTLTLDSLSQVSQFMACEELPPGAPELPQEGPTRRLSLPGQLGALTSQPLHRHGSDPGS

IC50 [1]: 23 nM | half-life [3]: 3.6 h | bioavailability [4]: 45% | IC50 [5]: > 10000 nM | bioavailability [6]: 107% | Cmax [7]: 174 ng/mL | half-life [9]: 10.3 h | half-life [11]: 6.3 h | Cmax [12]: 2060 ng/mL | clearance [13]: 8 mL/min/kg | Tmax [14]: 2 h | AUC(0-inf) [15]: 8920 ng·h/mL | IC50 [18]: 0.5 nM | IC50 [19]: 0.8 nM | IC50 [20]: ≥ 10000 nM | half-life [21]: 7.6 h | IC50 [22]: 0.8 nM
Structure (SMILES): COc1ccc2c(O[C@H]3CCN4C(=O)N(C)CCCCC=C[C@@H]5C[C@@]5(C(=O)NS(=O)(=O)C5(C)CC5)NC(=O)[C@@H]4C3)cc(-c3nc(C(F)(F)F)cs3)nc2c1C
Activity [2]: Non-toxic | CC50 [8]: > 10000 nM | Activity [10]: Non-toxic | Activity [16]: Non-toxic | inhibition (INH) [17]: Not Active
